Reference: US12319689B2, “Methyl- and trifluoromethyl-containing disubstituted sulfonamide selective BCL-2 inhibitor” (CHIA TAI TIANQING PHARMACEUTICAL GROUP CO., LTD., priority 2019, dated 2025)

Key:
BCL-XL/BAK = target: T1, BCL-XL/BAK (Homo sapiens, UniProt Q07817); assay: Inhibitory activity for BCL-XL/BAK binding (Cisbio BCL-XL/BAK (BH3) binding assay kit)
T1 construct: purchased Cisbio 63ADK000CB04PEG
Experimental: 300 nM Tag1-BCL-XL protein stock solution and 10 μM Tag2-BAK protein stock solution were diluted to 2 nM and 80 nM respectively with dilution buffer in kit (name: BCL-XL/BAK (BH3) BINDING ASSAY KITS, cat. No.: 63ADK000CB04PEG, from Cisbio). 5 μL of Tag1-BCL-XL protein diluent was added to each well, then different test compounds dissolved with DMSO were added to the wells with a nanoliter pipettor, allowing the final compound concentrations to be 2000 nM to 0.488 nM (4-fold gradient for 7 concentrations in total). Blank control wells (without enzyme) and negative control wells (with enzyme, plus vehicle DMSO) were set, and 2 replicate wells were set. Finally, 5 μL of Tag2-BAK protein diluent was added to each well, and the mixture was mixed well by centrifugation and incubated at 25° C. for 15 min. 100× anti-Tag1-Eu^3+ and 100× anti-Tag2-XL665 were both diluted to 1× working concentration with the detection buffer in the kit. Anti-Tag1-Eu^3+ and anti-Tag2-XL665 were mixed well in a 1:1 ratio, and the mixture was added to wells at 5 μL/well, and incubated at 25° C. for 2 h or more. The plate was read using a PE Envision multi-functional microplate reader ([…], emission: 665 nm) and IC50 (shown in Table 2) was calculated by four-parameter fitting.

BCL-2/BAK = target: T2, BCL-2/BAK (Homo sapiens, UniProt P10415); assay: Inhibitory activity for BCL-2/BAK binding (Cisbio BCL-2/BAK (BH3) binding assay kit)
T2 construct: purchased Cisbio 63ADK000CB01PEG
T2 sequence (P10415 whole entry): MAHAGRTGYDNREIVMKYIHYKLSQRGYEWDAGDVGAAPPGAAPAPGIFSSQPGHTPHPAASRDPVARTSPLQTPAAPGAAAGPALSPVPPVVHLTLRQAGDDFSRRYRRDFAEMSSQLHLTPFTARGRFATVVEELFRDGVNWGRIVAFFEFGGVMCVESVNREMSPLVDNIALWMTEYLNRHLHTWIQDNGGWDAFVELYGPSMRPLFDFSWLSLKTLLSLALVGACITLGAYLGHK
Experimental: 500 nM Tag1-BCL-2 protein stock solution and 20 μM Tag2-BAK protein stock solution were diluted to 5 nM and 120 nM respectively with dilution buffer in kit (name: BCL-2/BAK (BH3) BINDING ASSAY KITS, cat. No.: 63ADK000CB01PEG, from Cisbio). 5 μL of Tag1-BCL-2 protein diluent was added to each well, then test compounds dissolved with DMSO were added to the wells with a nanoliter pipettor, allowing the final compound concentrations to be 200 nM to 0.0488 nM (4-fold gradient for 7 concentrations in total). Blank control wells (without enzyme) and negative control wells (with enzyme, plus vehicle DMSO) were set, and 2 replicate wells were set. Finally, 5 μL of Tag2-BAK protein diluent was added to each well, and the mixture was mixed well by centrifugation and incubated at 25° C. for 15 min. 100× anti-Tag1-Eu^3+ and 100× anti-Tag2-XL665 were both diluted to 1× working concentration with the detection buffer in the kit. Anti-Tag1-Eu^3+ and anti-Tag2-XL665 were mixed well in a 1:1 ratio, and the mixture was added to wells at 5 μL/well, and incubated at 25° C. for 2 h or more. The plate was read using a PE Envision multi-functional microplate reader ([…], emission: 665 nm) and IC50 (shown in Table 2) was calculated by four-parameter fitting.

RS4;11 cells = assay: Inhibition of proliferation of RS4;11 human acute lymphocytic leukemia cells (CCK-8); type: cell-based; details: 72 h compound exposure, CCK-8, 5% serum
Experimental: RS4;11 cells (from ATCC) in logarithmic growth phase and good cell condition were added to a centrifuge tube and centrifuged at 1500 rpm for 3 min in a low speed centrifuge. The supernatant was discarded, and 5 mL of complete medium (RPMI basic medium+10% FBS) was added using a pipette for cell resuspension. The cells were counted using a cell counter, diluted with complete medium to a cell density of 2×10^5 cells/mL, and an equivalent amount of RPMI basic medium was added to adjust the serum concentration to 5% and the cell density to 1×10^5 cells/mL for plate seeding. The cells were seeded on a 96-well plate at 100 μL/well using a pipettor, and incubated in an incubator at 37° C., 5% CO2 with saturated humidity. After 24 h of incubation, compounds were loaded using a nanoliter pipettor, 2 duplicate wells were set for each concentration, and cells without compound were used as negative controls. […] Inhibition rate (%)=(mean value of negative control group−mean value of experimental group)/(mean value of negative control group−mean value of blank group)×100%. A dose-response curve was fitted by four-parameter analysis, with the logarithm of compound concentration serving as abscissa and inhibition rate serving as ordinate, so that IC50 was calculated (Table 1).

T1 sequence (Q07817 whole entry): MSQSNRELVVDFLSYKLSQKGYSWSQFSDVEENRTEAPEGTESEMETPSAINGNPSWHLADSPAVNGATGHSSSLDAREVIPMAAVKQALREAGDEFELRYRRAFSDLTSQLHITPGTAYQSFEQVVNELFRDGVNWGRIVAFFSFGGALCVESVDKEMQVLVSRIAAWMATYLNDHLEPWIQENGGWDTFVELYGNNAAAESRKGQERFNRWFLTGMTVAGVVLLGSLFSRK

IC50 (BCL-XL/BAK)	IC50 (BCL-2/BAK)	IC50 (RS4;11 cells)	Structure (SMILES)
261 nM	1.53 nM		Cc1cc(C(F)(F)F)ccc1C1=C(CN2CCN(c3ccc(C(=O)NS(=O)(=O)c4ccc(NC[C@H]5CCCOC5)c([N+](=O)[O-])c4)c(Oc4cnc5[nH]ccc5c4)c3)CC2)CCC(C)(C)C1 [Compound 15-1, (R)-4-(4-{[2-(2-methyl-4-trifluoromethylphenyl)-4,4-dimethylcyclohex-1-enyl]methyl}-piperazin-1-yl)-N-({3-nitro-4-[((tetrahydropyran-3-yl)methyl)amino]phenyl}sulfonyl)-2-(1H-pyrrolo[2,3-b]pyridin-5-yloxy)-benzamide]
144 nM	2.07 nM		Cc1cc(C(F)(F)F)ccc1C1=C(CN2CCN(c3ccc(C(=O)NS(=O)(=O)c4ccc(NC[C@@H]5CCCOC5)c([N+](=O)[O-])c4)c(Oc4cnc5[nH]ccc5c4)c3)CC2)CCC(C)(C)C1 [Compound 16-1, (S)-4-(4-{[2-(2-methyl-4-trifluoromethylphenyl)-4,4-dimethylcyclohex-1-enyl]methyl}-piperazin-1-yl)-N-({3-nitro-4-[((tetrahydropyran-3-yl)methyl)amino]phenyl}sulfonyl)-2-(1H-pyrrolo[2,3-b]pyridin-5-yloxy)-benzamide]
115 nM	0.72 nM	5.5 nM	Cc1cc(C(F)(F)F)ccc1C1=C(CN2CCN(c3ccc(C(=O)NS(=O)(=O)c4ccc(NC[C@@H]5CN(C(=O)C(C)C)CCO5)c([N+](=O)[O-])c4)c(Oc4cnc5[nH]ccc5c4)c3)CC2)CCC(C)(C)C1 [Compound 21-1, (R)-4-(4-{[2-(2-methyl-4-trifluoromethylphenyl)-4,4-dimethylcyclohex-1-enyl]methyl}-piperazin-1-yl)-N-({3-nitro-4-[((4-isobutyrylmorpholin-2-yl)methyl)amino]phenyl}sulfonyl)-2-(1H-pyrrolo[2,3-b]pyridin-5-yloxy)-benzamide]
105 nM	1.31 nM	2.2 nM	Cc1cc(C(F)(F)F)ccc1C1=C(CN2CCN(c3ccc(C(=O)NS(=O)(=O)c4ccc(NC[C@H]5CN(S(C)(=O)=O)CCO5)c([N+](=O)[O-])c4)c(Oc4cnc5[nH]ccc5c4)c3)CC2)CCC(C)(C)C1 [Compound 22-1, (S)-4-(4-{[2-(2-methyl-4-trifluoromethylphenyl)-4,4-dimethylcyclohex-1-enyl]methyl}-piperazin-1-yl)-N-({3-nitro-4-[((4-(methylsulfonyl)morpholin-2-yl)methyl)amino]phenyl}sulfonyl)-2-(1H-pyrrolo[2,3-b]pyridin-5-yloxy)-benzamide]
